Values belong to the molecule of their own block, whether it stands above or below them.
What was measured:
LTC4 synthase = biological target: T1, LTC4 synthase (Homo sapiens, UniProt Q16873); assay: Inhibition of LTC4 synthase activity (conversion of LTA4-ME to LTC4-ME) in lysates of transfected COS-7 cells; assay type: biochemical
T1 construct: expressed in transfected cells; host or cells: COS-7 (lysate of transfectants; cDNA from a KG-1 library in pcDNA3)
T1 sequence (Q16873 1-150): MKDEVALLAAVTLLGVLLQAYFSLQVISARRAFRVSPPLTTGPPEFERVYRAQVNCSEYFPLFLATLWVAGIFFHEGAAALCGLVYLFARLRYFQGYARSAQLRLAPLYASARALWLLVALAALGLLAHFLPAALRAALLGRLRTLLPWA
Procedure: HPLC was carried out with a model 126 dual pump system and model 167 scanning UV detector (Beckman Instruments) controlled by an IBM PS2/50 computer using Beckman System Gold software. Samples were applied to a 5-μm 4.6×250-mm C18 Ultrasphere reverse phase column (Beckman Instruments) equilibrated with a solvent of methanol/acetonitrile/water/acetic acid (10:15:100:0.2, v/v), pH 6.0 (solvent A). After injection of the sample, the column was eluted at a flow rate of 1 ml/min with a programmed concave gradient (System Gold curve 6) to 30% solvent A and 70% pure methanol (solvent B) over 0.2 min. After 2.8 min more, solvent B was increased linearly to 90% over 2 min and was maintained at this level for an additional 10 min. UV absorbance at 280 nm and the UV spectra were recorded simultaneously. The retention times for PGB2 and LTC4 -ME were 8.5 and 10.1 min, respectively. LTC4 -ME was quantitated by calculating the ratio of the peak area to the area of the internal standard PGB2.
Dose-Response Assay using MK886
Cell lysates of the COS-7 cell transfectant containing SEQ ID NO.: 1 were incubated with 20 micromolar LTA4 -ME, 20 mM GSH, 5 mM MgCl2 in HEPES buffer (pH 7.6), in the presence of 0-10 micromolar MK-886 for 10 minutes at room temperature. Reactions were stopped by addition of 2 volumes of methanol containing 200 ng PGB2. Samples were analyzed by RP-HPLC.
Lysates from transfected COS cells were analysed for LTC4, the product of conjugating reduced glutathione with 5,6-oxido-7,9-E-11,14-Z-eicosatetraenoic acid. […] At 10 μM, MK-886 inhibits more than 90% of the enzyme activity.

[1] = Conjugation of GSH to 1-chloro-2,4-dintrobenzene by purified LTC4 synthase fraction; assay type: biochemical; details: fraction purified from native KG-1 cells
From the text: Detergent-solubilize LTC4 synthase from 6×10^10 native KG-1 cells (using 0.4% deoxycholate, 0.4% Triton X-102, 10% glycerol) was purified by S-hexylglutathione-agarose chromatography using procedures adapted from Penrose et al., Proc. Nat. Acad. Sci., USA, 89:, above, followed by LTC2 affinity chromatography. Active fractions purified from the S-hexylglutathione-agarose column were combined, concentrated (Amicon, Danvers, Mass.) and then loaded onto an LTC2 affinity column equilibrated with buffer A and 0.1% Triton X-102. The column was washed with the same buffer and the enzyme was eluted with buffer A, containing 0.1% Triton X-102, 0.5 M NaCl and 5 mM reduced glutathione.
The LTC4 synthase activity contained a single 18-kDa protein by sodium dodecyl sulfate-polyacrylamide gel electrophoresis (NaDodSO4 -PAGE) with silver staining. […] A sample of the purified protein was concentrated and added to an equal volume of reducing buffer, and the mixture was boiled for 5 min. The reduced protein in this solution was bound to a polyvinylidene membrane by incubation overnight at 4° C. The bound protein was analyzed for N-terminal amino acid sequence by automated Edman degradation or was digested in situ with trypsin. Fernandez et al., Anal. Biochem., 201: 255-264 (1992). […]

effect on LTC4 synthase activity (LTC4 synthase; at a concentration of 10 μM, COS cell lysates): did not affect LTC4 synthase activity
Molecule: C[C@H](C#Cc1ccc(Oc2ccc(F)cc2)o1)N(O)C(N)=O [A79175]

Molecule: CC(C)c1ccc2c(c1)c(SC(C)(C)C)c(CC(C)(C)C(=O)O)n2Cc1ccc(Cl)cc1 [MK-886]
IC50 (LTC4 synthase; IC50, inhibition of conversion of LTA4-ME to LTC4-ME, 20 uM LTA4-ME, COS cell lysates, dose-dependent, 10 minutes, room temperature): < 3 µM
IC50 (LTC4 synthase; ID50, inhibition of LTC4 synthase activity, transfected COS cell lysates, dose-related (Discussion)): ~3 µM
inhibition at 10 µM (LTC4 synthase; read-out: inhibition of the enzyme activity): > 90%

B1: LTC4 synthase: 150-amino acid residue integral membrane protein with three hydrophobic transmembrane domains (protein, UniProt Q16873 1-150, looked up)
Leukotriene C4 synthase: T1 sequence (Q16873 1-150)
conjugation of GSH to 1-chloro-2,4-dintrobenzene [1]: did not conjugate GSH to 1-chloro-2,4-dintrobenzene

— US6221676A, “DNA encoding human leukotriene C4 synthase, polypeptides and uses therefor” (Brigham and Women's Hospital, priority 1997, dated 2001)
